Measured values taken from ChEMBL document CHEMBL4340502, “Anti-biofilm and anti-adherence properties of novel cyclic dipeptides against oral pathogens” (Bioorg Med Chem, 2019).
In brackets after ≈: the same amount, converted by molar mass. Activity calls are given as the source filed them. Unless noted, the calls are words filed in the database; no cut-off is given here.

What was measured:
[1] = test system: Limosilactobacillus fermentum; test: Antibiofilm activity against Lactobacillus fermentum LacB1 assessed as inhibition of biofilm formation up to 96 ug/mL after 24 hrs by crystal violet staining based assay; assay type: functional, organism-based
Escherichia coli [2] = test: Growth inhibition of Escherichia coli ATCC 15939 incubated for 24 hrs under aerobic condition by microdilution method; assay type: organism-based
Staphylococcus aureus [3] = test: Growth inhibition of Staphylococcus aureus ATCC 6538 incubated for 24 hrs under aerobic condition by microdilution method; assay type: organism-based; conditions: in vitro
Actinomyces naeslundii = test: Antibiofilm activity against Actinomyces naeslundii ATCC 49340 assessed as reduction in biofilm formation up to 96 ug/mL after 24 hrs by crystal violet staining-based assay; assay type: functional, organism-based
Pseudomonas aeruginosa [4] = test: Growth inhibition of Pseudomonas aeruginosa ATCC 10145 incubated for 24 hrs under aerobic condition by microdilution method; assay type: organism-based
[5] = molecular target: Mu-type opioid receptor (Rattus norvegicus) (UniProt P33535); test: Displacement of [3H]DAMGO from mu-opioid receptor in Long-Evans rat brain after 1 hr by liquid scintillation counting method; assay type: tissue-based
Chain of Mu-type opioid receptor (Rattus norvegicus) (P33535 whole entry): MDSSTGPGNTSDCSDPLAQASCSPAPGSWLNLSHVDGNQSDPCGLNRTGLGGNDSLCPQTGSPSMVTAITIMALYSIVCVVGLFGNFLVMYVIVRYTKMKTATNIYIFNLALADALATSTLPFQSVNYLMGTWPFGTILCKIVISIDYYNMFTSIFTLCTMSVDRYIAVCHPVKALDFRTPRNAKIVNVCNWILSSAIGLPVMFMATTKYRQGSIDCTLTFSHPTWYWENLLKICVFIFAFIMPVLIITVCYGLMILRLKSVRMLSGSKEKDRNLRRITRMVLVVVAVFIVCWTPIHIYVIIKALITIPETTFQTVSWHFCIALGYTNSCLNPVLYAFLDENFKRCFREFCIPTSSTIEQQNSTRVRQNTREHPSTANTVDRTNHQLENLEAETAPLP

Listeria monocytogenes = test: Growth inhibition of Listeria monocytogenes WSLC 1001 incubated for 24 hrs under aerobic condition by microdilution method; assay type: organism-based; conditions: in vitro
Streptococcus mutans [6] = test: Inhibition of planktonic growth of Streptococcus mutans ATCC 25175 at 96 ug/mL measured after 24 hrs relative to control; assay type: organism-based
Streptococcus mutans [7] = test: Antibiofilm activity against Streptococcus mutans ATCC 25175 assessed as inhibition of biofilm formation up to 96 ug/mL after 24 hrs by crystal violet staining-based assay; assay type: functional, organism-based
A549 = test: Growth inhibition of human A549 cells; assay type: functional, cell-based
Streptococcus mutans [8] = test: Inhibition of planktonic growth of Streptococcus mutans ATCC 25175 up to 96 ug/mL after 24 hrs relative to control; assay type: organism-based
Candida albicans [9] = test: Growth inhibition of Candida albicans ATCC 28366 up to 96 ug/ml measured after 24 hrs by microdilution method; assay type: organism-based; conditions: in vitro
Candida albicans [10] = test: Antibiofilm activity against Candida albicans ATCC 28366 assessed as reduction of biofilm formation up to 96 ug/mL after 24 hrs by crystal violet staining based assay; assay type: functional, organism-based
Candida albicans [11] = test: Antiadherence activity against FITC-labelled Candida albicans ATCC 28366 assessed as reduction in bacterial adhesion to hydroxylapatite up to 96 ug/mL after 1 hr by fluorescence assay relative to control; assay type: functional
Fusobacterium nucleatum = test: Antibiofilm activity against Fusobacterium nucleatum ATCC 25586 assessed as inhibition of biofilm formation up to 96 ug/mL after 24 hrs by crystal violet staining based assay; assay type: functional, organism-based
Fibroblast = test: Cytotoxicity against human fibroblasts; assay type: cell-based
Porphyromonas gingivalis = test: Antibiofilm activity against Porphyromonas gingivalis ATCC 33277 assessed as inhibition of biofilm formation up to 96 ug/mL after 24 hrs by crystal violet staining based assay; assay type: functional, organism-based
Staphylococcus aureus [12] = test: Antibacterial activity against Staphylococcus aureus MTCC 902 measured after 24 hrs by broth dilution method; assay type: functional; conditions: MTCC 902, 24 h
Escherichia coli [13] = test: Antibacterial activity against Escherichia coli MTCC 2622 measured after 24 hrs by broth dilution method; assay type: functional; conditions: MTCC 2622, 24 h
Streptococcus mutans [14] = test: Inhibition of planktonic growth of Streptococcus mutans ATCC 25175 at MIC> 192 ug/mL after 24 hrs relative to control; assay type: organism-based
Pseudomonas aeruginosa [15] = test: Antibacterial activity against Pseudomonas aeruginosa MTCC 2642 measured after 24 hrs by broth dilution method; assay type: functional; conditions: MTCC 2642, 24 h
Streptococcus mutans [16] = test: Bactericidal activity against Streptococcus mutans ATCC 25175; assay type: organism-based
Streptococcus mutans [17] = test: Antiadherence activity in FITC-labelled Streptococcus mutans ATCC 25175 assessed as reduction in bacterial adhesion to hydroxylapatite up to 96 ug/mL after 1 hr fluorescence assay; assay type: functional, organism-based
Streptococcus mutans [18] = test: Growth inhibition of Streptococcus mutans ATCC 25175 incubated for 24 hrs under aerobic condition by microdilution method; assay type: organism-based
Streptococcus mutans [19] = test: Antiadherence activity in FITC-labelled Streptococcus mutans ATCC 25175 assessed as reduction in bacterial adhesion to hydroxylapatite at 3 ug/mL after 1 hr fluorescence assay; assay type: functional, organism-based
Streptococcus mutans [20] = test: Antiadherence activity in FITC-labelled Streptococcus mutans ATCC 25175 assessed as reduction of bacterial adhesion to hydroxylapatite at 96 ug/mL after 1 hr by fluorescence assay; assay type: functional; set-up: scale not given: the % may be the effect or the level left
Candida albicans [21] = test: Antiadherence activity in FITC-labelled Candida albicans ATCC 28366 assessed as reduction of bacterial adhesion to hydroxylapatite at 96 ug/mL after 1 hr by fluorescence assay relative to control; assay type: functional; set-up: scale not given: the % may be the effect or the level left
[22] = Solubility of the compound in water; assay type: physicochemical; conditions: buffer
Candida albicans [23] = test: Antiadherence activity against FITC-labelled Candida albicans ATCC 28366 assessed as reduction in bacterial adhesion to hydroxylapatite at 3 ug/mL after 1 hr by fluorescence assay; assay type: functional, organism-based

SMILES	inhibition [1]	MIC (Escherichia coli [2])	MIC (Staphylococcus aureus [3])	Activity (Actinomyces naeslundii)	MIC (Pseudomonas aeruginosa [4])	Activity [5]	MIC (Listeria monocytogenes)	inhibition (Streptococcus mutans [7])	growth inhibition (GI) (Streptococcus mutans [8])	growth inhibition (GI) (Candida albicans [9])	Activity (Candida albicans [10])	Activity (Candida albicans [11])	inhibition (Fusobacterium nucleatum)	Activity (Fibroblast)	inhibition (Porphyromonas gingivalis)	further results
O=C1N[C@@H](Cc2ccc(O)cc2)C(=O)N[C@H]1Cc1ccccc1	inactive	> 192 µg/mL	> 192 µg/mL	inactive	> 192 µg/mL	Active	> 192 µg/mL	inactive	Toxic	Non-Toxic	Active	inactive	inactive	Non-Toxic	inactive	inhibition (INH) (Streptococcus mutans [6]): 20%; IC50 (A549): 10 µM
O=C1N[C@H](Cc2ccc(O)cc2)C(=O)N[C@@H]1Cc1ccccc1	inactive	> 192 µg/mL	> 192 µg/mL	inactive	> 192 µg/mL		> 192 µg/mL	inactive	Toxic	Non-Toxic	Active	inactive	inactive	Non-Toxic	inactive	MIC (Staphylococcus aureus [12]): 16 µg/mL (≈ 51.6 µM); MIC (Escherichia coli [13]): 64 µg/mL (≈ 206 µM); inhibition (INH) (Streptococcus mutans [14]): 20%; MIC (Pseudomonas aeruginosa [15]): 32 µg/mL (≈ 103 µM)
O=C1N[C@@H](Cc2ccc(O)cc2)C(=O)N[C@H]1Cc1ccc(O)cc1	inactive	> 192 µg/mL	> 192 µg/mL	inactive	> 192 µg/mL	Active	> 192 µg/mL	inactive	Toxic	Non-Toxic	Active	20%	inactive		inactive	MBC (Streptococcus mutans [16]): > 192 µg/mL; Activity (Streptococcus mutans [17]): inactive; MIC (Streptococcus mutans [18]): 96 µg/mL (≈ 294 µM)
O=C1N[C@H](Cc2ccc(OCc3ccccc3)cc2)C(=O)N[C@H]1Cc1ccc(OCc2ccccc2)cc1	inactive	> 192 µg/mL	> 192 µg/mL		> 192 µg/mL		> 192 µg/mL	inactive	Non-Toxic				inactive		inactive	Activity (Streptococcus mutans [19]): inactive; Activity (Streptococcus mutans [20]): 82%; Activity (Candida albicans [21]): 53%; solubility [22]: Insoluble; Activity (Candida albicans [23]): inactive
